Results as given in patent US20260242335A1, “HETEROCYCLOALKYL BETA-HYDROXY ALKYL AMINES FOR USE IN THE TREATMENT OF HYPERGLYCAEMIA AND DISORDERS CHARACTERISED BY HYPERGLYCAEMIA” (ATROGI AB, priority 2023, published 2026).
Counter-ions that a name gives are not always drawn.

Assays:
[1] = test system: L6-myotubes; assay: Glucose uptake (3H-2-deoxyglucose) in differentiated L6-myotubes, compared to isoproterenol; format: cell-based; conditions: compound at 10 μM vs isoproterenol at 10 μM, read-out: Biological example 1: glucose uptake activity compared to that of isoproterenol
Experimental: (§1) L6-myoblasts were grown in Dulbecco's Modified Eagle's Medium (DMEM) containing 1 g/L glucose supplemented with 10% fetal bovine serum, 2 mM L-Glutamine, 50 U/mL penicillin, […] streptomycin and 10 mM HEPES. Cells were plated at 1×10^5 cells per mL in 24-well plates. After reaching 90% confluence the cells were grown in medium containing 2% FBS for 7 days where upon cells differentiated into myotubes.
Differentiated L6-myotubes were serum-starved overnight in medium containing 0.5% fatty-acid free BSA and stimulated with an agonist, with a final concentration of 1×10^−5 M. After 1 h 40 min the cells were washed with warm glucose free medium or PBS twice and another portion of agonist was added to the glucose free medium. After 20 min the cells were exposed to 50 nM ^3H-2-deoxyglucose for another 10 min before washed in ice cold glucose free medium or PBS three times and lysed in 400 μL/well 0.2 M NaOH for 1 h at 60° C. The cell lysate was mixed with 4 mL scintillation buffer (Emulsifier Safe, Perkin Elmer) and the radioactivity was detected in a p-counter (Tri-Carb 4810TR, Perkin Elmer). The activity for each compound is compared to that of isoproterenol.

[2] = test system: L6-myotubes; assay: Measurement of intracellular cAMP levels (alpha screen cAMP kit) in differentiated cells, compared to isoproterenol; format: cell-based; conditions: 0.25 h, compound at 10 μM vs isoproterenol at 10 μM, 15 min stimulation, read-out: Biological example 2: intracellular cAMP level activity compared to that of isoproterenol
Experimental: as §1
Differentiated cells were serum-starved overnight and stimulated with an agonist, final concentration 1×10^−5 M, for 15 min in stimulation buffer (HBSS supplemented with 1% BSA, 5 mM HEPES and 1 mM IBMX, pH 7.4). The medium was aspirated and 100 μL of 95% EtOH was added to each well of the 24-well plate and cells were kept at −20° C. overnight. The EtOH was allowed to evaporate and 500 μL of lysis buffer (1% BSA, 5 mM HEPES and 0.3% Tween-20, pH 7.4) was added to each well. The plate was kept at −80° C. for 30 min and then at −20° C. until the day of detection when the samples were thawed. Intracellular cAMP levels were detected using an alpha screen cAMP kit (6760635D from Perkin Elmer). The activity for each compound is compared to that of isoproterenol.

| SMILES | Emax at 10 µM [1] | Emax at 10 µM [2] |
| --- | --- | --- |
| CC(C)(C[C@@H]1CCCN(S(C)(=O)=O)C1)NC[C@H](O)c1cccc(C(F)(F)F)n1 [Example 23, (S)-2-((2-Methyl-1-((S)-1-(methylsulfonyl)piperidin-3-yl)propan-2-yl)-amino)-1-(6-(trifluoromethyl)pyridin-2-yl)ethan-1-ol dihydrochloride] | 50 to 75% | < 25% |
| CC(C)(C[C@@H]1CCC(=O)NC1)NC[C@H](O)c1cccc(F)c1 [Example 36, (S)-5-(2-(((R)-2-(3-Fluorophenyl)-2-hydroxyethyl)amino)-2-methyl-propyl)piperidin-2-one hydrochloride] | 50 to 75% | < 25% |
| CC(C)(C[C@@H]1CCCN(C(=O)C(F)(F)F)C1)NC[C@H](O)c1cncc(F)c1 [Example 16, 2,2,2-Trifluoro-1-((S)-3-(2-(((R)-2-(5-fluoropyridin-3-yl)-2-hydroxy-ethyl)amino)-2-methylpropyl)piperidin-1-yl)ethan-1-one] | > 75% | < 25% |
| CC(C)(C[C@@H]1CCNC(=O)C1)NC[C@H](O)c1cccc(F)c1 [Example 53, (S)-4-(2-(((R)-2-(3-Fluorophenyl)-2-hydroxyethyl)amino)-2-methyl-propyl)piperidin-2-one] | > 75% | > 75% |
| CC(C)(C[C@H]1CCCN(C(=O)OC(C)(C)C)C1)NC[C@H](O)c1cncc(F)c1 [Example 40, tert-Butyl (R)-3-(2-(((R)-2-(5-fluoropyridin-3-yl)-2-hydroxyethyl)-amino)-2-methylpropyl)piperidine-1-carboxylate] | > 75% | < 25% |
| CN(C)C(=O)N1CCC(CC(C)(C)NC[C@H](O)c2cncc(F)c2)CC1 [Example 50, (R)-4-(2-((2-(5-Fluoropyridin-3-yl)-2-hydroxyethyl)amino)-2-methyl-propyl)-N,N-dimethylpiperidine-1-carboxamide dihydrochloride] | 50 to 75% | < 25% |
| CC(=O)N1CC[C@H](CC(C)(C)NC[C@H](O)c2cncc(F)c2)C1 [Example 62, 1-((R)-3-(2-(((R)-2-(5-Fluoropyridin-3-yl)-2-hydroxyethyl)amino)-2-methylpropyl)pyrrolidin-1-yl)ethan-1-one] | > 75% | < 25% |
| CC(C)(C[C@@H]1CCCN(C(=O)C(C)(C)C)C1)NC[C@H](O)c1cncc(F)c1 [Example 15, 1-((S)-3-(2-(((R)-2-(5-Fluoropyridin-3-yl)-2-hydroxyethyl)amino)-2-methylpropyl)piperidin-1-yl)-2,2-dimethylpropan-1-one] | > 75% | < 25% |
| CC(=O)N1CCC[C@H](CC(C)(C)NC[C@H](O)c2cncc(F)c2)C1 [Example 26, 1-((R)-3-(2-(((R)-2-(5-Fluoropyridin-3-yl)-2-hydroxyethyl)amino)-2-methylpropyl)piperidin-1-yl)ethan-1-one dihydrochloride] | 50 to 75% | < 25% |
| CC(C)(C[C@@H]1CCCN(C(=O)C(C)(C)C)C1)NC[C@H](O)c1cccc(F)c1 [Example 5, 1-((S)-3-(2-(((R)-2-(3-Fluorophenyl)-2-hydroxyethyl)amino)-2-methylpropyl)piperidin-1-yl)-2,2-dimethylpropan-1-one] | 50 to 75% | < 25% |
| CC(C)(C[C@@H]1CCCNC1)NC[C@H](O)c1cccc(F)c1 [Example 2, (R)-1-(3-Fluorophenyl)-2-((2-methyl-1-((S)-piperidin-3-yl)propan-2-yl)amino)ethan-1-ol] | > 75% | 25 to 50% |
| CC(=O)N1CC[C@H](CC(C)(C)NC[C@H](O)c2cccc(F)c2)C1 [Example 58, 1-((R)-3-(2-(((R)-2-(3-Fluorophenyl)-2-hydroxyethyl)amino)-2-methylpropyl)pyrrolidin-1-yl)ethan-1-one] | > 75% | < 25% |
| CC(C)(C[C@H]1CNC(=O)C1)NC[C@H](O)c1cccc(F)c1 [Example 76, (R)-4-(2-(((R)-2-(3-Fluorophenyl)-2-hydroxyethyl)amino)-2-methyl-propyl)pyrrolidin-2-one hydrochloride] | > 75% | < 25% |
| CC(C)(C[C@@H]1CCCNC1)NC[C@H](O)c1cccc(C(F)(F)F)n1 [Example 21, (S)-2-((2-Methyl-1-((S)-piperidin-3-yl)propan-2-yl)amino)-1-(6-(trifluoromethyl)pyridin-2-yl)ethan-1-ol] | 50 to 75% | < 25% |
| CC(=O)N1CC[C@@H](CC(C)(C)NC[C@H](O)c2cccc(F)c2)C1 [Example 66, 1-((S)-3-(2-(((R)-2-(3-Fluorophenyl)-2-hydroxyethyl)amino)-2-methylpropyl)pyrrolidin-1-yl)ethan-1-one] | > 75% | 25 to 50% |
| CC(C)(C[C@H]1CCN(S(C)(=O)=O)C1)NC[C@H](O)c1cncc(F)c1 [Example 63, (R)-1-(5-Fluoropyridin-3-yl)-2-((2-methyl-1-((R)-1-(methylsulfonyl)-pyrrolidin-3-yl)propan-2-yl)amino)ethan-1-ol] | > 75% | < 25% |
| CC(=O)N1CC[C@@H](CC(C)(C)NC[C@H](O)c2cncc(F)c2)C1 [Example 70, 1-((S)-3-(2-(((R)-2-(5-Fluoropyridin-3-yl)-2-hydroxyethyl)amino)-2-methylpropyl)pyrrolidin-1-yl)ethan-1-one] | > 75% | < 25% |
| CN(C)C(=O)N1CCC(CC(C)(C)NC[C@H](O)c2cccc(F)c2)CC1 [Example 44, (R)-4-(2-((2-(3-Fluorophenyl)-2-hydroxyethyl)amino)-2-methyl-propyl)-N,N-dimethylpiperidine-1-carboxamide hydrochloride] | > 75% | 50 to 75% |
| CC(C)(C[C@H]1CCNC1)NC[C@H](O)c1cccc(F)c1 [Example 57, (R)-1-(3-Fluorophenyl)-2-((2-methyl-1-((R)-pyrrolidin-3-yl)propan-2-yl)amino)ethan-1-ol] | > 75% | < 25% |
| CC(C)(C[C@H]1CCCN(S(C)(=O)=O)C1)NC[C@H](O)c1cccc(F)c1 [Example 25, (R)-1-(3-Fluorophenyl)-2-((2-methyl-1-((R)-1-(methylsulfonyl)-piperidin-3-yl)propan-2-yl)amino)ethan-1-ol hydrochloride] | 25 to 50% | < 25% |
| CC(C)(C[C@@H]1CCCN(C(=O)C(F)(F)F)C1)NC[C@H](O)c1cccc(F)c1 [Example 6, 2,2,2-Trifluoro-1-((S)-3-(2-(((R)-2-(3-fluorophenyl)-2-hydroxyethyl)-amino)-2-methylpropyl)piperidin-1-yl)ethan-1-one] | > 75% | < 25% |
| CC(=O)N1CCC[C@@H](CC(C)(C)NC[C@H](O)c2cccc(C(F)(F)F)n2)C1 [Example 22, 1-((S)-3-(2-(((S)-2-Hydroxy-2-(6-(trifluoromethyl)pyridin-2-yl)ethyl)-amino)-2-methylpropyl)piperidin-1-yl)ethan-1-one dihydrochloride] | > 75% | < 25% |
| CC(C)(C[C@@H]1CCN(C(=O)OC(C)(C)C)C1)NC[C@H](O)c1cccc(F)c1 [Example 64, tert-Butyl (S)-3-(2-(((R)-2-(3-fluorophenyl)-2-hydroxyethyl)amino)-2-methylpropyl)pyrrolidine-1-carboxylate] | 50 to 75% | > 75% |
| CC(C)(C[C@@H]1CCCN(S(C)(=O)=O)C1)NC[C@H](O)c1cccc(F)c1 [Example 4, (R)-1-(3-Fluorophenyl)-2-((2-methyl-1-((S)-1-(methylsulfonyl)-piperidin-3-yl)propan-2-yl)amino)ethan-1-ol hydrochloride] | 50 to 75% | 25 to 50% |
| CC(C)(CC1CCN(S(C)(=O)=O)CC1)NC[C@H](O)c1cccc(F)c1 [Example 31, (R)-1-(3-Fluorophenyl)-2-((2-methyl-1-(1-(methylsulfonyl)piperidin-4-yl)propan-2-yl)amino)ethan-1-ol hydrochloride] | 50 to 75% | < 25% |
| COC(=O)N1CCC(CC(C)(C)NC[C@H](O)c2cncc(F)c2)CC1 [Example 49, Methyl (R)-4-(2-((2-(5-Fluoropyridin-3-yl)-2-hydroxyethyl)amino)-2-methylpropyl)piperidine-1-carboxylate dihydrochloride] | > 75% | < 25% |
| CC(C)(C[C@H]1CCN(C(=O)OC(C)(C)C)C1)NC[C@H](O)c1cccc(F)c1 [Example 56, tert-Butyl (R)-3-(2-(((R)-2-(3-fluorophenyl)-2-hydroxyethyl)amino)-2-methylpropyl)pyrrolidine-1-carboxylate] | 50 to 75% | < 25% |
